The conditions of data set [1]: background statement; cited from earlier work.
The next data set deals with Escherichia coli. Description: Systemic infection in mouse, E. coli. Type of data set: in vivo. Particulars: Kunming mice, intraperitoneal infection with minimal lethal dose, drug by gavage 1 hour after infection, 7 days observation, Bliss method; for ED50: Escherichia coli, ip. The source says: (§1) 1. Origin of testing samples:
(§2) • Levo-ofloxacin was commercially available.
(§3) Prulifloxacin was self-made product, prepared according to the method disclosed in the publication J. Med. Chem. 1992, 35, 4727-4738.
(§4) Levo-prulifloxacin, dextro-prulifloxacin, levo-prulifloxacin hydrochloride, levo-prulifloxacin mesylate were self-made, prepared according to the method described in examples (see respective ordinal number in parenthesis following name of testing drug in Table 6);
(§5) 2. Experimental strains: Bacteria for infecting animals were pathogenic strains isolated from clinic;
(§6) 3. Preparation of liquid bacteria culture: 2-3 colonies were picked and inoculated into M-H broth, followed by incubation for 18 hours at 37° C. The culture was diluted appropriately with 5% dried yeast liquid for use.
(§7) 4. Experimental animals: Healthy SPF Kunming mice were selected, with 18-22 g in body weight, half male and half female.
(§8) 5. Determination of minimal lethal dose of bacteria: Mice were divided randomly, resulting in 10 mice in each group, half male and half female. The above-mentioned bacterial cultures in different dilutions were injected intraperitoneally into mice, in the amount of 0.5 mL per mouse, followed by continuous observation for 7 days after infection and recording the number of death mice. The minimal amount of bacteria which caused 100% death of mice was deemed as minimal lethal dose of bacteria and thereby was adopted for infection tests in vivo. 6. Preparation of testing drugs: The testing drugs were prepared with 1% CMC, respectively. 7. Method for infection and treatment: Experimental animals were divided randomly but evenly based on gender and body weight, resulting in 10 mice in each group, half male and half female. Minimal lethal dose of bacteria were injected intraperitoneally into mice in amount of 0.5 mL/mice, respectively. After infected for 1 hour, the testing drugs in different doses were administered to mice by gavage in the amount of 0.2 ml/10 g, respectively. Seven dose groups of 0.05, 0.10, 0.20, 0.40, 0.80, 1.60, 3.20 mg/kg were set up for Escherichia coli while seven dose groups of 0.50, 1.0, 2.0, 4.0, 8.0, 16.0, 32.0 mg/kg were set up for Pseudomonas aeruginosa. Observation was conducted after administration and death statuses of the mice were recorded. A control group was set up and the number of mice which died within 7 days after infection was recorded at the same time. The obtained data were processed by Bliss method to calculate ED50. 8.

The test system of another data set is Pseudomonas aeruginosa. Description: Systemic infection in mouse, P. aeruginosa. Type of data set: in vivo. The settings on record: Kunming mice, intraperitoneal infection with minimal lethal dose, drug by gavage 1 hour after infection, 7 days observation, Bliss method; for ED50: Pseudomonas aeruginosa, ip.
From the text: as §1, §2, §3, §4, §5, §6, §7, §8

Data set [2] is described as follows: Acute toxicity test in NIH mice, limited dosage by gavage. Particulars: both sexes, mouse, in vivo, po, 5000 mg/kg, single gavage, 2 weeks observation, read-out: LD50 of oral administration. The protocol:
Acute toxicity test was conducted in NIH mice by administrating limited-dosages of drugs.
Levo-prulifloxacin; control groups: racemic prulifloxacin group and blank control group
20 NIH mice in each group, half male and half female, 18˜22 g in body weight, were fasted overnight. Levo-prulifloxacin and racemic prulifloxacin were prepared to a 250 mg/ml suspension with 0.3% CMC, respectively, and then administered to the mice by gavage at once in the amount of 0.2 mL/10 g. After administration, observation was firstly conducted for 4 hours continuously, and then once a day for 2 weeks continuously. Animals' responses to toxicity, appearing time and recovering time thereof were recorded. On Day 2, 4, 8, 11 and 15, body weight of the animals were measured and amounts of feed intake were determined. Observation indexes included diet, appearance, behavior, secretion, excrement and the like Animals' death was recorded, starting time, severity, duration of toxic symptoms and toxic reactions, whether the symptoms or reactions are reversible and the like were also recorded. Animals dying from poisoning and dying animals were dissected roughly in time while all other animals were dissected roughly after completing observation. […] The obtained data were processed by Bliss method to calculate LD50.

In a further data set the test system is bacteria. Particulars: ulifloxacin enantiomers, small samples from chiral preparation chromatographic column; cited from earlier work.

As for `Cc1oc(=O)oc1CN1CCN(c2cc3c(cc2F)c(=O)c(C(=O)O)c2n3C(C)S2)CC1` (racemic) [(+/−) Prulifloxacin, (±)6-fluoro-1-methyl-7-[4-(5-methyl-2-oxo-1,3-dioxolen-4-yl)methyl-1-piperazinyl]-4-oxo-4H-[1,3]thiazeto[3,2-α]quinoline-3-carboxylic acid, reference compound], in data set [1], the half-life – broadly, how long it takes for the measured level to halve – was 8 to 9 h and the “time at which peak blood concentration is attained” value was 0.5 to 1 h. The 50% effect level with Escherichia coli (ED50) was put at a dose of 0.53 mg/kg. For the same molecule, the 50% effective dose (ED50) (in general, the dose that gives a 50% effect, or the effect in half of the subjects) with Pseudomonas aeruginosa worked out at 4.04 mg/kg. For the same molecule, the LD50 at 2 weeks in data set [2] is more than 5000 mg/kg.

With `C[C@@H]1Sc2c(C(=O)O)c(=O)c3cc(F)c(N4CCNCC4)cc3n21` (single isomer, unassigned) [levo-enantiomer], in the data set on bacteria, the “antibacterial activity of levo-enantiomer relative to dextro-enantiomer” value is listed as 2 to 8 times.

In the case of `Cc1oc(=O)oc1CN1CCN(c2cc3c(cc2F)c(=O)c(C(=O)O)c2n3C(C)S2)CC1` (single isomer, unassigned; (+)) [(+) Prulifloxacin], the “ED50 E. coli” value with Escherichia coli amounted to 1.58 mg/kg. In addition, the “ED50 P. aeruginosa” value in the data set with Pseudomonas aeruginosa was determined as 8.20 mg/kg.

Consider `Cc1oc(=O)oc1CN1CCN(c2cc3c(cc2F)c(=O)c(C(=O)O)c2n3[C@H](C)S2)CC1.Cl` [(−) Prulifloxacin hydrochloride, S-(−)-6-fluoro-1-methyl-7-[4-(5-methyl-2-oxo-1,3-dioxolen-4-yl)methyl-1-piperazinyl]-4-oxo-4H-[1,3]thiazeto[3,2-α]quinoline-3-carboxylic acid hydrochloride], for which, in the data set with Escherichia coli, the “ED50 E. coli” value was 0.12 mg/kg. In the data set with Pseudomonas aeruginosa, the “ED50 P. aeruginosa” value is reported as 1.25 mg/kg.

Consider `CS(=O)(=O)O.Cc1oc(=O)oc1CN1CCN(c2cc3c(cc2F)c(=O)c(C(=O)O)c2n3[C@H](C)S2)CC1` [(−) Prulifloxacin mesylate, S-(−)-6-fluoro-1-methyl-7-[4-(5-methyl-2-oxo-1,3-dioxolen-4-yl)methyl-1-piperazinyl]-4-oxo-4H-[1,3]thiazeto[3,2-α]quinoline-3-carboxylic acid mesylate], for which the “ED50 E. coli” value with Escherichia coli was 0.11 mg/kg. Moreover, the “ED50 P. aeruginosa” value with Pseudomonas aeruginosa was 1.22 mg/kg.

On to `Cc1oc(=O)oc1CN1CCN(c2cc3c(cc2F)c(=O)c(C(=O)O)c2n3[C@H](C)S2)CC1` [(−) Prulifloxacin, S-(−)-6-fluoro-1-methyl-7-[4-(5-methyl-2-oxo-1,3-dioxolen-4-yl)methyl-1-piperazinyl]-4-oxo-4H-[1,3]thiazeto[3,2-α]quinoline-3-carboxylic acid], for which the ED50 came to 0.11 mg/kg in the data set with Escherichia coli and 1.02 mg/kg in the data set on Pseudomonas aeruginosa. For the same molecule, the LD50 at 2 weeks in data set [2] is more than 5000 mg/kg.

Take `CC1COc2c(N3CCN(C)CC3)c(F)cc3c(=O)c(C(=O)O)cn1c23` (centres unmarked) [Ofloxacin, reference compound]: the ED50 in the data set on Escherichia coli worked out at 0.82 mg/kg; in the data set on Pseudomonas aeruginosa, 16.1 mg/kg.

Values taken from patent US8501741B2, “Optically active compound of prulifloxacin for treating infection and preparation method thereof” (priority 2010, dated 2013).
